Where two headings read alike, the source gives them in different places.
Assays:
[1] = biological target: T1, E. coli CsgA (Escherichia coli, UniProt P28307); assay: In vitro ThioflavinT assay of CsgA aggregation (CsgA ThT Assay); type: biochemical; details: 1005 minutes; for remaining activity at 25 µM: compound 25 μM; for remaining activity at 100 µM: compound 100 μM
T1 construct: made in house; host or cells: E. coli NEB 3016 slyD::kan, pET11d
How it was run: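 Purified C-terminal His-tagged CsgA, monomerised by desalting and 30-kDa filtration, at 2-20 μM with 20-40 μM ThT in 50 mM potassium phosphate pH 7.3, 1% DMSO, compounds 3.125-200 uM; room temperature, fluorescence (ex 438/em 495 nm) read every 15 min. Background-subtracted signal expressed as percent inhibition versus vehicle at 6-6.5 or 8-9 h, or as percent control AUC.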

[2] = system: CsgA gene expression (csgBAC promoter-GFP reporter) in E. coli UTI89; assay: In vitro live cell fluorescent reporter assay of CsgA transcription (Reporter Assay); type: cell-based; details: Escherichia coli
How it was run: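 Compounds at 0.14–100 μM (1% DMSO final) incubated 20 h at 27 °C in YESCA broth with UTI89 carrying a single-copy GFP reporter under the csgBAC intergenic promoter region, inoculum OD600 0.003. Fluorescence normalized to vehicle wells gave IC50 and 50%-of-vehicle concentration; OD600 reduction >10% flagged growth impact.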

[3] = read-out: CsgA ThT Assay (10 μM CsgA) % Control AUC at 1005 minutes, 25 μM (activity range), CsgA 10 μM, black plates, class symbol
[4] = read-out: CsgA ThT Assay (10 μM CsgA) % Control AUC at 1005 minutes, 25 μM, mean AUC as % of DMSO control, CsgA 10 μM, black plates
[5] = read-out: CsgA ThT Assay (10 μM CsgA) % Control AUC at 1005 minutes, 100 μM (activity range), CsgA 10 μM, black plates, class symbol
[6] = read-out: CsgA ThT Assay (10 μM CsgA) % Control AUC at 1005 minutes, 100 μM, mean AUC as % of DMSO control, CsgA 10 μM, black plates
[7] = read-out: Reporter Assay Abs IC50 (activity range), median Abs IC50 in the CsgA reporter assay, class symbol
[8] = read-out: Reporter Assay Abs IC50 (μM), median Abs IC50 in the CsgA reporter assay, N/A = maximum expression reduction is <50% of control

T1 sequence (P28307 23-151): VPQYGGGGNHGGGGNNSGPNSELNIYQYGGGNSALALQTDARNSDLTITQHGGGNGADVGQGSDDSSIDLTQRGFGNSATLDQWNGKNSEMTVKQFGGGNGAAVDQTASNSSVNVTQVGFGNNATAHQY

Nc1c(Cc2cccc3ccccc23)c(-c2cccc(C(F)(F)F)c2)c2n(c1=O)C(C(=O)O)CN(CCCCCO)S2(=O)=O (stereo not drawn) [Compound 100, 7-amino-2-(5-hydroxypentyl)-8-(naphthalen-1-ylmethyl)-6-oxo-9-(3-(trifluoromethyl)phenyl)-3,4-dihydro-2H,6H-pyrido[1,2-e][1,2,5]thiadiazine-4-carboxylic acid 1,1-dioxide]
remaining activity at 25 µM [1, 3]: 31 to 60%
remaining activity at 25 µM [1, 4]: 41%
remaining activity at 100 µM [1, 5]: 31 to 60%
remaining activity at 100 µM [1, 6]: 31%
IC50 [2, 7]: > 10 µM
IC50 [2, 8]: 14.5 µM

CN1CC(C(=O)O)n2c(c(-c3cccc(C(F)(F)F)c3)c(Cc3cccc4ccccc34)c(C(O)CO)c2=O)S1(=O)=O (stereo not drawn) [Compound 101, 7-(1,2-dihydroxyethyl)-2-methyl-8-(naphthalen-1-ylmethyl)-6-oxo-9-(3-(trifluoromethyl)phenyl)-3,4-dihydro-2H,6H-pyrido[1,2-e][1,2,5]thiadiazine-4-carboxylic acid 1,1-dioxide]
remaining activity at 25 µM [1, 3]: > 60%
remaining activity at 25 µM [1, 4]: 61%
remaining activity at 100 µM [1, 5]: 11 to 31%
remaining activity at 100 µM [1, 6]: 15%
IC50 [2, 7]: > 10 µM
IC50 [2, 8]: 29 µM

CN1CC(C(=O)O)n2c(c(-c3cccc(C(F)(F)F)c3)c(Cc3cccc4ccccc34)c(N3CCNCC3)c2=O)S1(=O)=O (stereo not drawn) [Compound 102, 2-methyl-8-(naphthalen-1-ylmethyl)-6-oxo-7-(piperazin-1-yl)-9-(3-(trifluoromethyl)phenyl)-3,4-dihydro-2H,6H-pyrido[1,2-e][1,2,5]thiadiazine-4-carboxylic acid 1,1-dioxide]
remaining activity at 25 µM [1, 3]: > 60%
remaining activity at 25 µM [1, 4]: 90%
remaining activity at 100 µM [1, 5]: 31 to 60%
remaining activity at 100 µM [1, 6]: 57%
IC50 [2, 7]: 4.6 to 10 µM
IC50 [2, 8]: 5.4 µM

CN1CC(C(=O)O)n2c1c(-c1cccc(C(F)(F)F)c1)c(Cc1cccc3ccccc13)cc2=O (stereo not drawn) [Compound 104, 1-methyl-7-(naphthalen-1-ylmethyl)-5-oxo-8-(3-(trifluoromethyl)phenyl)-1,2,3,5-tetrahydroimidazo[1,2-a]pyridine-3-carboxylic acid]
remaining activity at 25 µM [1, 3]: > 60%
remaining activity at 25 µM [1, 4]: 82%
remaining activity at 100 µM [1, 5]: 31 to 60%
remaining activity at 100 µM [1, 6]: 52%
IC50 [2, 7]: 4.6 to 10 µM
IC50 [2, 8]: 6 µM

Nc1c(Cc2cccc3ccccc23)c(-c2cccc(C(F)(F)F)c2)c2n(c1=O)C(C(=O)O)CN(C[C@H](O)[C@@H](O)[C@H](O)[C@H](O)CO)S2(=O)=O (stereo partly drawn) [Compound 105, 7-amino-8-(naphthalen-1-ylmethyl)-6-oxo-2-((2S,3R,4R,5R)-2,3,4,5,6-pentahydroxyhexyl)-9-(3-(trifluoromethyl)phenyl)-3,4-dihydro-2H,6H-pyrido[1,2-e][1,2,5]thiadiazine-4-carboxylic acid 1,1-dioxide]
remaining activity at 25 µM [1, 3]: > 60%
remaining activity at 25 µM [1, 4]: 102%
remaining activity at 100 µM [1, 5]: > 60%
remaining activity at 100 µM [1, 6]: 70%
IC50 [2, 7]: > 10 µM
IC50 [2, 8]: 36 µM

O=C(O)C1CN(C(CO)CO)S(=O)(=O)c2c(-c3cccc(C(F)(F)F)c3)c(Cc3cccc4ccccc34)cc(=O)n21 (stereo not drawn) [Compound 106, 2-(1,3-dihydroxypropan-2-yl)-8-(naphthalen-1-ylmethyl)-6-oxo-9-(3-(trifluoromethyl)phenyl)-3,4-dihydro-2H,6H-pyrido[1,2-e][1,2,5]thiadiazine-4-carboxylic acid 1,1-dioxide]
remaining activity at 25 µM [1, 3]: > 60%
remaining activity at 25 µM [1, 4]: 95%
remaining activity at 100 µM [1, 5]: 31 to 60%
remaining activity at 100 µM [1, 6]: 38%
IC50 [2, 7]: > 10 µM
IC50 [2, 8]: 28.3 µM

CCCN1CC(C(=O)O)n2c(c(-c3cccc(C(F)(F)F)c3)c(Cc3cccc4ccccc34)c(Br)c2=O)S1(=O)=O (stereo not drawn) [Compound 107, 7-bromo-8-(naphthalen-1-ylmethyl)-6-oxo-2-propyl-9-(3-(trifluoromethyl)phenyl)-3,4-dihydro-2H,6H-pyrido[1,2-e][1,2,5]thiadiazine-4-carboxylic acid 1,1-dioxide]
remaining activity at 25 µM [1, 3]: 31 to 60%
remaining activity at 25 µM [1, 4]: 36%
remaining activity at 100 µM [1, 5]: 31 to 60%
remaining activity at 100 µM [1, 6]: 38%
IC50 [2, 7]: 1.3 to 4.5 µM
IC50 [2, 8]: 3.7 µM

CN(C)Cc1c(Cc2cccc3ccccc23)c(-c2cccc(C(F)(F)F)c2)c2n(c1=O)C(C(=O)O)CN(C)S2(=O)=O (stereo not drawn) [Compound 108, 7-((dimethylamino)methyl)-2-methyl-8-(naphthalen-1-ylmethyl)-6-oxo-9-(3-(trifluoromethyl)phenyl)-3,4-dihydro-2H,6H-pyrido[1,2-e][1,2,5]thiadiazine-4-carboxylic acid 1,1-dioxide]
remaining activity at 25 µM [1, 3]: 11 to 31%
remaining activity at 25 µM [1, 4]: 14%
remaining activity at 100 µM [1, 5]: 11 to 31%
remaining activity at 100 µM [1, 6]: 25%
IC50 [2, 7]: < 1.3 µM
IC50 [2, 8]: 0.6 µM

CCc1c(Cc2cccc3ccccc23)c(-c2cccc(C(F)(F)F)c2)c2n(c1=O)C(C(=O)O)CN(CCCO)S2(=O)=O (stereo not drawn) [Compound 112, 7-ethyl-2-(3-hydroxypropyl)-8-(naphthalen-1-ylmethyl)-6-oxo-9-(3-(trifluoromethyl)phenyl)-3,4-dihydro-2H,6H-pyrido[1,2-e][1,2,5]thiadiazine-4-carboxylic acid 1,1-dioxide]
remaining activity at 25 µM [1, 3]: 31 to 60%
remaining activity at 25 µM [1, 4]: 35%
remaining activity at 100 µM [1, 5]: 11 to 31%
remaining activity at 100 µM [1, 6]: 20%
IC50 [2, 7]: 4.6 to 10 µM
IC50 [2, 8]: 9 µM

CCc1c(Cc2cccc3ccccc23)c(-c2cccc(C(F)(F)F)c2)c2n(c1=O)C(C(=O)O)CN(CCCCO)S2(=O)=O (stereo not drawn) [Compound 113, 7-ethyl-2-(4-hydroxybutyl)-8-(naphthalen-1-ylmethyl)-6-oxo-9-(3-(trifluoromethyl)phenyl)-3,4-dihydro-2H,6H-pyrido[1,2-e][1,2,5]thiadiazine-4-carboxylic acid 1,1-dioxide]
remaining activity at 25 µM [1, 3]: 31 to 60%
remaining activity at 25 µM [1, 4]: 41%
remaining activity at 100 µM [1, 5]: 11 to 31%
remaining activity at 100 µM [1, 6]: 24%
IC50 [2, 7]: 4.6 to 10 µM
IC50 [2, 8]: 4.6 µM

CCc1c(Cc2cccc3ccccc23)c(-c2cccc(C(F)(F)F)c2)c2n(c1=O)C(C(=O)O)CN(CCCCCO)S2(=O)=O (stereo not drawn) [Compound 114, 7-ethyl-2-(5-hydroxypentyl)-8-(naphthalen-1-ylmethyl)-6-oxo-9-(3-(trifluoromethyl)phenyl)-3,4-dihydro-2H,6H-pyrido[1,2-e][1,2,5]thiadiazine-4-carboxylic acid 1,1-dioxide]
remaining activity at 25 µM [1, 3]: 31 to 60%
remaining activity at 25 µM [1, 4]: 37%
remaining activity at 100 µM [1, 5]: 11 to 31%
remaining activity at 100 µM [1, 6]: 21%
IC50 [2, 7]: 4.6 to 10 µM
IC50 [2, 8]: 7 µM

CCc1c(Cc2cccc3ccccc23)c(-c2cccc(C(F)(F)F)c2)c2n(c1=O)C(C(=O)O)CN(C(C)C)S2(=O)=O (stereo not drawn) [Compound 115, 7-ethyl-2-isopropyl-8-(naphthalen-1-ylmethyl)-6-oxo-9-(3-(trifluoromethyl)phenyl)-3,4-dihydro-2H,6H-pyrido[1,2-e][1,2,5]thiadiazine-4-carboxylic acid 1,1-dioxide]
remaining activity at 25 µM [1, 3]: 31 to 60%
remaining activity at 25 µM [1, 4]: 35%
remaining activity at 100 µM [1, 5]: 11 to 31%
remaining activity at 100 µM [1, 6]: 23%
IC50 [2, 7]: 4.6 to 10 µM
IC50 [2, 8]: 7.2 µM

CCCN1CC(C(=O)O)n2c(c(-c3cccc(C(F)(F)F)c3)c(Cc3cccc4ccccc34)c(CC)c2=O)S1(=O)=O (stereo not drawn) [Compound 117, 7-ethyl-8-(naphthalen-1-ylmethyl)-6-oxo-2-propyl-9-(3-(trifluoromethyl)phenyl)-3,4-dihydro-2H,6H-pyrido[1,2-e][1,2,5]thiadiazine-4-carboxylic acid 1,1-dioxide]
remaining activity at 25 µM [1, 3]: 31 to 60%
remaining activity at 25 µM [1, 4]: 32%
remaining activity at 100 µM [1, 5]: 11 to 31%
remaining activity at 100 µM [1, 6]: 22%
IC50 [2, 7]: 4.6 to 10 µM
IC50 [2, 8]: 5.9 µM

O=c1cc(Cc2cccc3ccccc23)c(-c2cccc(C(F)(F)F)c2)c2n1C(CO)CS2 (stereo not drawn) [Compound 118, 3-(hydroxymethyl)-7-(naphthalen-1-ylmethyl)-8-(3-(trifluoromethyl)phenyl)-2,3-dihydro-5H-thiazolo[3,2-a]pyridin-5-one]
remaining activity at 25 µM [1, 3]: > 60%
remaining activity at 25 µM [1, 4]: 92%
remaining activity at 100 µM [1, 5]: > 60%
remaining activity at 100 µM [1, 6]: 76%
IC50 [2, 7]: 1.3 to 4.5 µM
IC50 [2, 8]: 3.9 µM

CCc1c(Cc2cccc3ccccc23)c(-c2cccc(C(F)(F)F)c2)c2n(c1=O)C(C(=O)O)CN([C@H]1CC[C@@H](O)CC1)S2(=O)=O (stereo partly drawn) [Compound 124, 7-ethyl-2-((1s,4s)-4-hydroxycyclohexyl)-8-(naphthalen-1-ylmethyl)-6-oxo-9-(3-(trifluoromethyl)phenyl)-3,4-dihydro-2H,6H-pyrido[1,2-e][1,2,5]thiadiazine-4-carboxylic acid 1,1-dioxide]
remaining activity at 25 µM [1, 3]: 31 to 60%
remaining activity at 25 µM [1, 4]: 35%
remaining activity at 100 µM [1, 5]: 11 to 31%
remaining activity at 100 µM [1, 6]: 21%
IC50 [2, 7]: 1.3 to 4.5 µM
IC50 [2, 8]: 3.1 µM

— US20230131899A1, “INHIBITORS OF MICROBIALLY INDUCED AMYLOID” (Axial Therapeutics, Inc., priority 2020, published 2023)
